Drawing on ChEMBL document CHEMBL2074503, “Role of organic anion-transporting polypeptides, OATP-A, OATP-C and OATP-8, in the human placenta-maternal liver tandem excretory pathway for foetal bilirubin” (Biochem J, 2003), this text covers Km and Activity for 3 molecules.

In series [1] the target is T1, Solute carrier organic anion transporter family member 1B3 (OATP1B3) (Homo sapiens, UniProt Q9NPD5).
T1 sequence (Q9NPD5 whole entry): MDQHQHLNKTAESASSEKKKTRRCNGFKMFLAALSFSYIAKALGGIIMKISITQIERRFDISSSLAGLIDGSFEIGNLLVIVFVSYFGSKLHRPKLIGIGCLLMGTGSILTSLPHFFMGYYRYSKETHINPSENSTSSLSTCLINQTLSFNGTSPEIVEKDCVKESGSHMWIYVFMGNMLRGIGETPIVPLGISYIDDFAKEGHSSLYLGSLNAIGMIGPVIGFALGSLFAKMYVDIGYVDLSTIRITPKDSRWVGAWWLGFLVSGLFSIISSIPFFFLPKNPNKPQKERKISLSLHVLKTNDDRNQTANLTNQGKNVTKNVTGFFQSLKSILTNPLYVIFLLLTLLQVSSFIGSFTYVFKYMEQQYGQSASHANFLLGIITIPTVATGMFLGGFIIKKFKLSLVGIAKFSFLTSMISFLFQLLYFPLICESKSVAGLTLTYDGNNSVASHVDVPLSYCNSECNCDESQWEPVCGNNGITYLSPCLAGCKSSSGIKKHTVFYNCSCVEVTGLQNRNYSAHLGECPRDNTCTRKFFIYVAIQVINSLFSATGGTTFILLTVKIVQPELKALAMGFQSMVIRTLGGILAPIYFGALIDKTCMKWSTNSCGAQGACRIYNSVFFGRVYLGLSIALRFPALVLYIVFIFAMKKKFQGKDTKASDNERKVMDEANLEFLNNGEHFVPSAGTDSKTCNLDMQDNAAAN
Briefly: (§1) TP_TRANSPORTER: uptake in Xenopus laevis oocytes. In kind it is functional, cell-based, Oocyte. To be noted: Xenopus laevis oocytes expressing OATP1B3 (SLCO1B3).

Series [2] addresses T2, Solute carrier organic anion transporter family member 1A2 (Homo sapiens, UniProt P46721).
T2 sequence (P46721 whole entry): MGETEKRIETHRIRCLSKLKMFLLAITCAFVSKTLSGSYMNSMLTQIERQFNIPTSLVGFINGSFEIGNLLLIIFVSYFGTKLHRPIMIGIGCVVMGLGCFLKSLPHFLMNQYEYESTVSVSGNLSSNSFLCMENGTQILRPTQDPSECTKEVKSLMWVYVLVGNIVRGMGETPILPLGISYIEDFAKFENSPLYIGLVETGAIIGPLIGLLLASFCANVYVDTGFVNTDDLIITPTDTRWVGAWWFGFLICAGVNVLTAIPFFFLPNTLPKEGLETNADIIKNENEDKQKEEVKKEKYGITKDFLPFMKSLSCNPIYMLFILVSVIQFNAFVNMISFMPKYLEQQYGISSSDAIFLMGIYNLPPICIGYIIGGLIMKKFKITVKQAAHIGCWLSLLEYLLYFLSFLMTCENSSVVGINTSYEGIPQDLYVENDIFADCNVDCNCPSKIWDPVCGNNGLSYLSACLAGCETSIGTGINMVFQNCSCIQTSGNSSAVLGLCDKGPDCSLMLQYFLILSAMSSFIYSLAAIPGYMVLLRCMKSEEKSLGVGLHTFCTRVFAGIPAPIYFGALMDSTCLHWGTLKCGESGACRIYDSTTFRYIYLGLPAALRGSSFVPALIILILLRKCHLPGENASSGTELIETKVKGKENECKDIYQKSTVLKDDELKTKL
In words: (§2) TP_TRANSPORTER: inhibition of E217betaG uptake (E217betaG: 10 uM) by Bilirubin at a concentration of 100 u M in Xenopus laevis oocytes. In kind it is functional, cell-based. To be noted: oocyte, 100 µM.

The target in series [3] is T3, Solute carrier organic anion transporter family member 1B1 (Homo sapiens, UniProt Q9Y6L6).
T3 sequence (Q9Y6L6 whole entry): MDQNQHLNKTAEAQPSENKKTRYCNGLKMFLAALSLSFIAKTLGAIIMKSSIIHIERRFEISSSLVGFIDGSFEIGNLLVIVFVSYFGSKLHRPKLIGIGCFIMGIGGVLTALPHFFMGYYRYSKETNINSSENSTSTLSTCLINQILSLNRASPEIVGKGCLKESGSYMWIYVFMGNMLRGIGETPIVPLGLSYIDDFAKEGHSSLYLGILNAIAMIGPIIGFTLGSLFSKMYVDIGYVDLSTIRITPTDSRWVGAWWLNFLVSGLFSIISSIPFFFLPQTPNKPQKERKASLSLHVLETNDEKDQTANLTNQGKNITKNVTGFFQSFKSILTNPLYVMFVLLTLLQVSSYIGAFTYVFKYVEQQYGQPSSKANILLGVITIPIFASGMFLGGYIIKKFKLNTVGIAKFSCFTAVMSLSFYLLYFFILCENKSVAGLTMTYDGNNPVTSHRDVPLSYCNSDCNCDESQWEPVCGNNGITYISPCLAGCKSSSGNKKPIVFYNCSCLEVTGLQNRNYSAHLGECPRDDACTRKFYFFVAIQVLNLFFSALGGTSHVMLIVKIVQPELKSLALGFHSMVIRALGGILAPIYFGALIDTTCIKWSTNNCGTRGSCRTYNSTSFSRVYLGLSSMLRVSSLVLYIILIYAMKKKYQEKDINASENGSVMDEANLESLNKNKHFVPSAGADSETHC
The series is described as §2. In kind it is functional, cell-based. The conditions noted are these: oocyte, 100 µM.

The target in series [4] is T4, Solute carrier organic anion transporter family member 1B3 (Homo sapiens, UniProt Q9NPD5).
T4 sequence (Q9NPD5 whole entry): T1 sequence (Q9NPD5 whole entry)
The description is as §2. In kind it is functional, cell-based. To be noted: oocyte, 100 µM.

The target of series [5] is T2, Solute carrier organic anion transporter family member 1A2. Briefly: (§3) TP_TRANSPORTER: inhibition of UCB uptake (UCB: 10 uM) by Estradiol-17beta-D-glucuronide at a concentration of 100 u M in Xenopus laevis oocytes. To be noted: oocyte, 100 µM. Format: functional, cell-based.
Series [6] has as its target T3, Solute carrier organic anion transporter family member 1B1. The description is as §3. In kind it is functional, cell-based. To be noted: oocyte, 100 µM.
Series [7] concerns the target T4, Solute carrier organic anion transporter family member 1B3. Described as §3. In kind it is functional, cell-based. The conditions noted are these: oocyte, 100 µM.
Substrate in series [8]: C=CC1=C(C)/C(=C/c2[nH]c(Cc3[nH]c(/C=C4\NC(=O)C(C)=C4C=C)c(C)c3CCC(=O)O)c(CCC(=O)O)c2C)NC1=O
The description is as §1. Format: functional, cell-based, Oocyte.

Consider `C=CC1=C(C)/C(=C/c2[nH]c(Cc3[nH]c(/C=C4\NC(=O)C(C)=C4C=C)c(C)c3CCC(=O)O)c(CCC(=O)O)c2C)NC1=O` [BILIRUBIN], for which the Km (in general, the concentration of substrate that gives half-maximal velocity) in series [1] turned out to be 0.0391 µM. Moreover, the Activity result in series [2], in series [3] and in series [4] was “inhibitor [+]” throughout.

Take `C[C@]12CC[C@@H]3c4ccc(O)cc4CC[C@H]3[C@@H]1CC[C@@H]2O[C@@H]1O[C@H](C(=O)O)[C@@H](O)[C@H](O)[C@H]1O` [ESTRADIOL 17B GLUCURONIDE]: the Activity result in series [5], in series [6] and in series [7] was “inhibitor [+]” in each case.

B1: Solute carrier organic anion transporter family member 1B1 (Homo sapiens) (protein)
chain: T3 sequence (Q9Y6L6 whole entry)
For the molecule B1, in series [8], the Km was determined as 0.0076 µM.
